Columns and labels:
[1] = molecular target: T1, CYP3A (Homo sapiens, UniProt P08684); assay: IC50 shift assay (time- and NADPH-dependent inhibition) in HLMs; format: in vitro ADME
Protocol: A NADPH regenerating system (NADPH-gs, containing 10 mM glucose-6-phosphate, 5 mM magnesium chloride, 1 U/mL glucose-6-phosphate dehydrogenase and 1 mM NADP+) was constructed. The metabolite of Tes, 6OH-Tes, was assayed by UHPLC-MS method (I) for CYP3A activity assessment.
In a final volume of 100 µL, Gom A at different concentrations (0, 0.08, 0.31, 0.63, 2.5, 10 and 40 µM) was preincubated with 10 × HLMs (5 mg/mL) at 37 °C with NADPH-gs in PBS (0.1 M). After 30 min, the incubation mixture was diluted 10 folds using PBS (0.1 M). Then 100 µL of the diluted mixture was added into a secondary incubation containing NADPH-gs and 25 µM Tes. The final volume was 200 µL. After 10 min incubation, the reaction was terminated by the addition of 200 µL ice-cold acetonitrile containing 18 ng/mL phenacetin (IS-I). […]
Pharmacokinetic profiles of CTX and DCCTX were estimated by one-compartmental model using the DAS 2.0 software ([…], Medical College of Wannan, Anhui, China). Data were expressed as mean ± SD. […] IC50 values of Gom A were determined by nonlinear regression analysis using GraphPad Prism 5.01 software (GraphPad Software Inc., San Diego, CA, USA). The mode of inhibition was verified by Lineweaver-Burk plots of the enzyme kinetic data, and the KI value was determined by linear regression analysis with GraphPad Prism 5.01 (GraphPad Software Inc.). […]

[2] = system: hepatic CYP3A mRNA; assay: CYP3A expression assay (real-time PCR) in rat liver; format: in vivo; details: normalized to GAPDH
Protocol: Rats were randomly divided into four groups (groups A−D, n = 5), respectively. In brief, rats in group A (vehicle control group) were i.g. administered with saline (10 mL/kg), and were euthanized 72 h later. Rats in groups B−D were i.g. administered with Gom A at dose of 20.8 mg/kg (50 µmol/kg, same with pharmacokinetic study), and euthanized 24, 48 and 72 h respectively after Gom A treatment. After euthanization, rat livers were immediately collected, washed with ice-cold saline, and stored at −80 °C for CYP3A protein expression assay.
To determine CYP3A mRNA content in rat liver, the liver samples were homogenized and the total RNA was extracted from liver samples using RNeasy Mini Kit according to the manufacturer’s instructions (Qiagen). The concentration of total RNA was determined by UV spectra at 260/280 nm, and the purity was determined by calculating the ration of UV absorbance. 2 µg of total RNA in a total volume of 50 µL (1 µg/25 µL) was reverse transcribed into template cDNA using dNTP mix (1 mM), random primers (0.5 µg/mL), AMV RT (22 U/µL), MgCl2 (25 mM) and RT buffer (10×).
For qRT-PCR, forward and reverse primer sequences (Table 2) of CYP3A gene were used. In a Stratagene Mx3005P sequence detection system (Agilent Technologies Agilent, Santa Clara, CA, USA), 50 ng of cDNA/sample and 10 µM forward and reverse primers were added to a total reaction mixture of 20 µL of SYBR Select Master Mix (Invitrogen). GAPDH was applied as the house-keeping gene. All assays were performed in triplicate. […] The CYP3A mRNA levels of groups A−D were expressed as a ratio of induced to vehicle control group (group A).

[3] = molecular target: T1, CYP3A; assay: Effect on DCCTX production from CTX in HLMs; format: in vitro ADME; details: 10 µM inhibitor, HLMs 0.5 mg/mL, CTX substrate; 60 min
Protocol: The effect of Gom A on CYP3A metabolism of CTX in HLMs was investigated. […] Considering the difficulty for direct CAA determination, DCCTX was assayed to reflect CAA production using an established UHPLC-MS method (II).
The CYP3A inhibitor ketoconazole (Keto) was used as positive control. Briefly, various concentrations of Gom A and Keto (0.01, 0.1, 1 and 10 µM) were incubated with HLMs (0.5 mg/mL) in PBS (0.1 M) containing NADPH-gs and 100 µM CTX in a total volume of 200 µL. After a 5 min warm up period, reactions were initiated with addition of NADPH-gs. Incubations were conducted at 37 °C for 60 min and then terminated by the addition of 200 µL ice-cold acetonitrile containing 6 ng/mL of TNZ (IS-II).

[4] = molecular target: T1, CYP3A; assay: KI and kinact assay (CYP3A inactivation) in HLMs; format: in vitro ADME; set-up: tissue Meilun Biotechnology Co., Ltd. (Dalian, China) lot No. M0202A; host or cells: pooled (mixed) male human liver microsomes; details: preincubation 0-30 min with NADPH-gs, 100 µM Tes
Protocol: The following steps were similar as described in the IC50 shift assays. […] All the incubations were performed in triplicate.
Pharmacokinetic profiles of CTX and DCCTX were estimated by one-compartmental model using the DAS 2.0 software ([…], Medical College of Wannan, Anhui, China). Data were expressed as mean ± SD. Comparisons between two groups were performed using one-way ANOVA followed by LSD test in the condition of variance homogeneity or Dunnett T3 test in the case of variance heterogeneity. The differences were considered to be statistically significant at * p < 0.05 and ** p < 0.01. IC50 values of Gom A were determined by nonlinear regression analysis using GraphPad Prism 5.01 software (GraphPad Software Inc., San Diego, CA, USA). The mode of inhibition was verified by Lineweaver-Burk plots of the enzyme kinetic data, and the KI value was determined by linear regression analysis with GraphPad Prism 5.01 (GraphPad Software Inc.). The initial inactivation rate constant (kobs, min^−1) was estimated from the initial slope of the linear regression line at each concentration of Gom A. Then the values of kobs were plotted versus Gom A concentration, and the maximal inactivation rate constant kinact, along with the concentration of inactivator (at which the rate of the inactivation is half maiximal) KI values, were determined using Equation (1). […]

T1 sequence (P08684 2-503): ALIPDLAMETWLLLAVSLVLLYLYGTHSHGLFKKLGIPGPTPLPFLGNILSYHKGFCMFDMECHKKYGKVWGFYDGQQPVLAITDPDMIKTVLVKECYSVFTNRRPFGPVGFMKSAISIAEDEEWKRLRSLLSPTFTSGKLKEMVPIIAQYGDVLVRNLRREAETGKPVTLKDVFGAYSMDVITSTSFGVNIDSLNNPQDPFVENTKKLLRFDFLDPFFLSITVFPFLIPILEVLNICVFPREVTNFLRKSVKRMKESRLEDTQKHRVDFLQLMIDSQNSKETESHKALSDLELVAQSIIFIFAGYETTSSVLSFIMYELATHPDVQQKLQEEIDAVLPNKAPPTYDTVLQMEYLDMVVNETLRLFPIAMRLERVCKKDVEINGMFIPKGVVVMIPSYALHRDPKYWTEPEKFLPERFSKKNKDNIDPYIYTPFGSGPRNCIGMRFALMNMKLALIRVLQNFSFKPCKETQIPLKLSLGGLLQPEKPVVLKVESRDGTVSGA

For Gomisin A [Gom A], the “NADPH dependence of CYP3A inhibition” value ([1]; Gom A 1 µM preincubated 30 min with vs without NADPH-gs, data not shown) was “more potent when Gom A was preincubated with NADPH”, the “shift in IC50” value ([1]; with vs without 30 min preincubation) was 1.8 fold and the “hepatic CYP3A mRNA expression increase vs vehicle group” value (“hepatic CYP3A mRNA expression increase” for short) ([2]; 24 h after single dose Gom A 20.8 mg/kg i.g.) was 73 fold. For the same substance, the “hepatic CYP3A mRNA expression increase” value ([2]; 48 h after single dose Gom A 20.8 mg/kg i.g.) was 18 fold, the “hepatic CYP3A mRNA expression increase” value ([2]; 72 h after single dose Gom A 20.8 mg/kg i.g.) was 8 fold and the “DCCTX production, % of that in control group” value [3] was 15%. It also gave a kinact [4] of 1.96 min⁻¹.

— PMC6152024 (Molecules : A Journal of Synthetic Chemistry and Natural …, 2017)
